ChEMBL document CHEMBL5356964, “Design, synthesis and anti-rheumatoid arthritis activity of target TLR4 inhibitors” (Bioorg Med Chem, 2024)
Activity calls are given as the source filed them. The rule behind the calls is not given here.

How the values were obtained:
RAW264.7 [1] = experiment: Antiarthritic activity against LPS-induced mouse RAW264.7 cells assessed as downregulation of STAT3 expression at 1 uM preincubated with compound for 24 hrs followed by LPS-induction and measured after 24 hrs by Western blot analysis; assay type: functional, cell-based; conditions: time 48.0 hrs
RAW264.7 [2] = experiment: Antiarthritic activity against LPS-induced mouse RAW264.7 cells assessed as downregulation of JAK2 expression at 1 uM preincubated with compound for 24 hrs followed by LPS-induction and measured after 24 hrs by Western blot analysis; assay type: functional, cell-based; conditions: time 48.0 hrs
RAW264.7 [3] = experiment: Antiarthritic activity against LPS-induced mouse RAW264.7 cells assessed as reduction in IL-6 level at 1 uM pretreated with compound for 24 hrs followed by LPS induction and measured after 24 hrs; assay type: functional, cell-based; conditions: time 48.0 hrs
RAW264.7 [4] = experiment: Antiproliferative activity against LPS-induced- mouse RAW264.7 cells assessed as cell survival at 1 uM pretreated with compound for 24 hrs followed by LPS induction and measured after 24 hrs; assay type: functional, cell-based; conditions: time 48.0 hrs
RAW264.7 [5] = experiment: Antiarthritic activity against LPS-induced mouse RAW264.7 cells assessed as downregulation of TNF-alpha expression at 1 uM preincubated with compound for 24 hrs followed by LPS-induction and measured after 24 hrs by Western blot analysis; assay type: functional, cell-based; conditions: time 48.0 hrs
Toll-like receptor 4 [6] = molecular target: T1, Toll-like receptor 4 (Homo sapiens, UniProt O00206); experiment: Inhibition of TLR4 (unknown origin) using TMB as substrate incubated for 90 mins
T1 sequence (O00206 whole entry): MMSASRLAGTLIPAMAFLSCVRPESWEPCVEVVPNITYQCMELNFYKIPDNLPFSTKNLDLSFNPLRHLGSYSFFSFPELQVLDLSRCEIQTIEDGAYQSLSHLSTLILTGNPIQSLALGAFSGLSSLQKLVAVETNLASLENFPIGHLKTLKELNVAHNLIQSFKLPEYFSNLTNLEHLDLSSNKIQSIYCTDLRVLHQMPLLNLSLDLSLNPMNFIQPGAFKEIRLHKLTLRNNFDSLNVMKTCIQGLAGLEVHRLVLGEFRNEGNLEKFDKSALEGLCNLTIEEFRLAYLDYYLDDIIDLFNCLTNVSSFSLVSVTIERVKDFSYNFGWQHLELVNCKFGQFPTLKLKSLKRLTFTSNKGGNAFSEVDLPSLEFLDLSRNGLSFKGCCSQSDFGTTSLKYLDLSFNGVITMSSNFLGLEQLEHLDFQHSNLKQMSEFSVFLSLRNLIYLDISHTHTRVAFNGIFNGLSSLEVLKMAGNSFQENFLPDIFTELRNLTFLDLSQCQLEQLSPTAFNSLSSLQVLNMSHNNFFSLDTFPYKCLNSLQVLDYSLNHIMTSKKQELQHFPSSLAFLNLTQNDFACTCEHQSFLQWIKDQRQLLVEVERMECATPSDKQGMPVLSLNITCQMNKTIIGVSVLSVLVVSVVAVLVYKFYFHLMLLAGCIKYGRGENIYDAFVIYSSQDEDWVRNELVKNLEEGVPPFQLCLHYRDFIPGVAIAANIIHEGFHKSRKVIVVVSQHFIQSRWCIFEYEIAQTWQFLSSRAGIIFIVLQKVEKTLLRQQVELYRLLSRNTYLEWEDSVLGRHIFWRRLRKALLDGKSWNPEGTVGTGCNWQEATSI

RAW264.7 [7] = experiment: Antiarthritic activity against LPS-induced mouse RAW264.7 cells assessed as downregulation of STAT3 expression at 1 uM preincubated with compound for 24 hrs followed by LPS-induction and measured after 24 hrs by immunofluorescence analysis; assay type: functional, cell-based; conditions: time 48.0 hrs
RAW264.7 [8] = experiment: Antiproliferative activity against LPS-induced- mouse RAW264.7 cells assessed as inhibition of cell growth incubated for 24 hrs by CCK-8 assay; assay type: functional, cell-based; conditions: RAW264.7, 24 h
Toll-like receptor 4 [9] = molecular target: T1, Toll-like receptor 4; experiment: Potency index, ratio of methotrexate IC50 to test compound IC50 for inhibition of TLR4 (unknown origin) using TMB as substrate incubated for 90 mins
RAW264.7 [10] = experiment: Antiarthritic activity against LPS-induced mouse RAW264.7 cells assessed as downregulation of TLR4 expression at 1 uM preincubated with compound for 24 hrs followed by LPS-induction and measured after 24 hrs by Western blot analysis; assay type: functional, cell-based; conditions: time 48.0 hrs
RAW264.7 [11] = experiment: Antiarthritic activity against LPS-induced mouse RAW264.7 cells assessed as reduction in IL-1beta level at 1 uM pretreated with compound for 24 hrs followed by LPS induction and measured after 24 hrs; assay type: functional, cell-based; conditions: time 48.0 hrs
RAW264.7 [12] = experiment: Antiarthritic activity against LPS-induced mouse RAW264.7 cells assessed as downregulation of TLR4 expression at 1 uM preincubated with compound for 24 hrs followed by LPS-induction and measured after 24 hrs by immunofluorescence analysis; assay type: functional, cell-based; conditions: time 48.0 hrs
RAW264.7 [13] = experiment: Antiarthritic activity against LPS-induced mouse RAW264.7 cells assessed as downregulation of STAT3 mRNA expression at 1 uM preincubated with compound for 24 hrs followed by LPS-induction and measured after 24 hrs by RT-PCR analysis; assay type: functional, cell-based; conditions: time 48.0 hrs
RAW264.7 [14] = experiment: Antiarthritic activity against LPS-induced mouse RAW264.7 cells assessed as downregulation of NF-kappaB mRNA expression at 1 uM preincubated with compound for 24 hrs followed by LPS-induction and measured after 24 hrs by RT-PCR analysis; assay type: functional, cell-based; conditions: time 48.0 hrs
Mus musculus [15] = experiment: Antiarthritic activity against collagen-induced rheumatoid arthritis mouse model assessed as reduction in paw swelling at 100 mg/kg administered for 15 days and measured on day 28; assay type: functional, organism-based; conditions: time 28.0 day
RAW264.7 [16] = experiment: Antiarthritic activity against LPS-induced mouse RAW264.7 cells assessed as downregulation of NF-kappaB expression at 1 uM preincubated with compound for 24 hrs followed by LPS-induction and measured after 24 hrs by immunofluorescence analysis; assay type: functional, cell-based; conditions: time 48.0 hrs
RAW264.7 [17] = experiment: Antiarthritic activity against LPS-induced mouse RAW264.7 cells assessed as downregulation of TNF-alpha expression at 1 uM preincubated with compound for 24 hrs followed by LPS-induction and measured after 24 hrs by immunofluorescence analysis; assay type: functional, cell-based; conditions: time 48.0 hrs
[18] = Antiproliferative activity against rat Synovial cell assessed as inhibition of cell growth incubated for 48 hrs by CCK-8 assay; assay type: functional, cell-based
RAW264.7 [19] = experiment: Antiarthritic activity against LPS-induced mouse RAW264.7 cells assessed as reduction in IL-1beta level at 1 uM incubated for 24 hrs (Rvb 665.1 +/- 82.1 pg/L); assay type: functional
RAW264.7 [20] = experiment: Antiarthritic activity against LPS-induced mouse RAW264.7 cells assessed as downregulation of TNF-alpha mRNA expression at 1 uM preincubated with compound for 24 hrs followed by LPS-induction and measured after 24 hrs by RT-PCR analysis; assay type: functional, cell-based; conditions: time 48.0 hrs
RAW264.7 [21] = experiment: Antiarthritic activity against LPS-induced mouse RAW264.7 cells assessed as reduction in IL-6 level at 1 uM incubated for 24 hrs (Rvb 231.1 +/- 24.2 pg/L); assay type: functional
Mus musculus [22] = experiment: Antiarthritic activity against collagen-induced rheumatoid arthritis mouse model assessed as reduction in IL-1beta level at 100 mg/kg administered for 15 days by ELISA analysis; assay type: functional, organism-based; conditions: time 15.0 day
RAW264.7 [23] = experiment: Antiarthritic activity against LPS-induced mouse RAW264.7 cells assessed as downregulation of TLR4 mRNA expression at 1 uM preincubated with compound for 24 hrs followed by LPS-induction and measured after 24 hrs by RT-PCR analysis; assay type: functional, cell-based; conditions: time 48.0 hrs
Mus musculus [24] = experiment: Antiarthritic activity against collagen-induced rheumatoid arthritis mouse model assessed as reduction in clinical score at 100 mg/kg administered for 15 days; assay type: functional, organism-based; conditions: time 15.0 day
Mus musculus [25] = experiment: Antiarthritic activity against collagen-induced rheumatoid arthritis mouse model assessed as reduction in TNF-alpha level at 100 mg/kg administered for 15 days by ELISA analysis; assay type: functional, organism-based; conditions: time 15.0 day
RAW264.7 [26] = experiment: Antiarthritic activity against LPS-induced mouse RAW264.7 cells assessed as reduction in TNF-alpha level at 1 uM incubated for 24 hrs (Rvb 653.3 +/- 70.1 pg/L); assay type: functional
Mus musculus [27] = experiment: Antiarthritic activity against collagen-induced rheumatoid arthritis mouse model assessed as reduction in IL-6 level at 100 mg/kg administered for 15 days by ELISA analysis; assay type: functional, organism-based; conditions: time 15.0 day
RAW264.7 [28] = experiment: Antiarthritic activity against LPS-induced mouse RAW264.7 cells assessed as downregulation of JAK2 expression at 1 uM preincubated with compound for 24 hrs followed by LPS-induction and measured after 24 hrs by immunofluorescence analysis; assay type: functional, cell-based; conditions: time 48.0 hrs
RAW264.7 [29] = experiment: Antiarthritic activity against LPS-induced mouse RAW264.7 cells assessed as downregulation of NF-kappaB expression at 1 uM preincubated with compound for 24 hrs followed by LPS-induction and measured after 24 hrs by Western blot analysis; assay type: functional, cell-based; conditions: time 48.0 hrs
RAW264.7 [30] = experiment: Antiarthritic activity against LPS-induced mouse RAW264.7 cells assessed as reduction in TNF-alpha level at 1 uM pretreated with compound for 24 hrs followed by LPS induction and measured after 24 hrs; assay type: functional, cell-based; conditions: time 48.0 hrs
RAW264.7 [31] = experiment: Antiarthritic activity against LPS-induced mouse RAW264.7 cells assessed as downregulation of JAK2 mRNA expression at 1 uM preincubated with compound for 24 hrs followed by LPS-induction and measured after 24 hrs by RT-PCR analysis; assay type: functional, cell-based; conditions: time 48.0 hrs
RAW264.7 [32] = experiment: Antiproliferative activity against LPS-induced- mouse RAW264.7 cells assessed as decrease in number of cells at 1 uM pretreated with compound for 24 hrs followed by LPS induction and measured after 24 hrs; assay type: functional, cell-based; conditions: time 48.0 hrs

CC(=O)CC(=O)C1CC(O)CCC1=O (configuration not stated)
Activity (RAW264.7 [1]): Active | Activity (RAW264.7 [2]): Active | Activity (RAW264.7 [3]): Active | Activity (RAW264.7 [4]): Active | Activity (RAW264.7 [5]): Active | IC50 (Toll-like receptor 4 [6]): 430 nM | Activity (RAW264.7 [7]): Active | IC50 (RAW264.7 [8]): 730 nM | Ratio IC50 (Toll-like receptor 4 [9]): 2.4 | Activity (RAW264.7 [10]): Active | Activity (RAW264.7 [11]): Active | Activity (RAW264.7 [12]): Active | Activity (RAW264.7 [13]): Active | Activity (RAW264.7 [14]): Active | Activity (Mus musculus [15]): Active | Activity (RAW264.7 [16]): Active | Activity (RAW264.7 [17]): Active | IC50 [18]: 1210 nM | Activity (RAW264.7 [19]): 258.3 pg/L | Activity (RAW264.7 [20]): Active | Activity (RAW264.7 [21]): 90.2 pg/L | Activity (Mus musculus [22]): Active | Activity (RAW264.7 [23]): Active | Activity (Mus musculus [24]): Active | Activity (Mus musculus [25]): Active | Activity (RAW264.7 [26]): 151.5 pg/L | Activity (Mus musculus [27]): Active | Activity (RAW264.7 [28]): Active | Activity (RAW264.7 [29]): Active | Activity (RAW264.7 [30]): Active | Activity (RAW264.7 [31]): Active | Activity (RAW264.7 [32]): Active
